Key:
duration of action = format: in vivo; settings: estimated; ratio to 5-methyl-7-methoxy-isoflavone
Source text: One limitation of known prodrugs is that, once they are transformed into the parent drug, they are broken down in the body, and particularly in the liver. This breakdown reduces in vivo concentration and bioavailability of the drug. This breakdown effect has been observed with 5-methyl-7-methoxy-isoflavone. In the presently preferred embodiments of the invention, however, the compounds are less prone to such breakdown in the body relative to many known prodrug-type compounds. This in many instances is attributable to the alkylcarbonate ester promoiety, which makes the compound more resistant to hydrolysis and other reactions that inhibit or destroy them in the body. In vivo concentrations thus can be maintained more readily, and bioavailability of the parent isoflavone can be improved. It has been estimated that the duration of action for 5-methyl-7-ethylcarbonate-isoflavone may be twice that of 5-methyl-7-methoxy-isoflavone.

[1] = after transformation into the parent drug; cited from earlier work
[2] = administered to a human; estimated; cited from earlier work

| duration of action relative to 5-methyl-7-methoxy-isoflavone (duration of action) | SMILES | breakdown effect in the body (liver) reducing in vivo concentration and bioavailability [1] | proportion of administered prodrug converted in vivo to 7-hydroxy-5-methyl-isoflavone [2] |
| --- | --- | --- | --- |
| twice | CCOC(=O)Oc1cc(C)c2c(=O)c(-c3ccccc3)coc2c1 [5-methyl-7-ethylcarbonate-isoflavone] | – | – |
| – | COc1cc(C)c2c(=O)c(-c3ccccc3)coc2c1 [5-methyl-7-methoxy-isoflavone] | observed | approximately 50% |

Reference: US7625943B2, “5-alkyl-7-alkylcarbonate-isoflavone ester and related method” (priority 2004, dated 2009)
